{"source": "patent US5304474A", "about": "“Hydrophobic peptide esters and amides” (Board of Regents, The University of Texas System, priority 1991, dated 1994)", "key": {"[1]": {"tested_on": "[^3 H]Leu-Leu-OMe uptake by PBL (facilitated transport)", "test": "Competitive inhibition of [3H]Leu-Leu-OMe uptake", "assay_type": "cell-based, human", "details": "for inhibition at 250 µM: Homo sapiens, unlabeled compound 250 microM", "experimental": "Human peripheral blood lymphocytes (PBL) were incubated in the presence of [^3 H]labeled Leu-Leu-OMe at 22° C. for varying lengths of time. The incubation mixture was then centrifuged through silicone oil to separate the cells from any unbound or non-internalized [^3 HLeu-Leu-OMe. […] At 37° C., levels of [^3 H]Leu-Leu-OMe accumulation by PBL were increased above those seen at 22° C. (see Table 4)."}, "[2]": {"biological_target": "dipeptidyl peptidase I (DPPI) (Bos taurus, UniProt Q3ZCJ8)", "sequence (Q3ZCJ8 231-394 limits assumed)": "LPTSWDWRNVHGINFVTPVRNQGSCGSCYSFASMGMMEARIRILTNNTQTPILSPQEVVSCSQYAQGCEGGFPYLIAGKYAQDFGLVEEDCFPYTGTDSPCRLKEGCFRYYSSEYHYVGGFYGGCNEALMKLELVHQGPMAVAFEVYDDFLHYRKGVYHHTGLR", "sequence (Q3ZCJ8 25-134 limits assumed)": "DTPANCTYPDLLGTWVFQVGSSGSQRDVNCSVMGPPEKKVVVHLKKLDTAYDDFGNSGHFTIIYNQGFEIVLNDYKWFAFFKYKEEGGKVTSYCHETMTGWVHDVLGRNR", "sequence (Q3ZCJ8 395-463 limits assumed)": "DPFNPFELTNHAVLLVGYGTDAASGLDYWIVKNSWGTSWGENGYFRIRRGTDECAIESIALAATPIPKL", "test": "Dipeptidyl peptidase I catalyzed lysis of human RBC", "assay_type": "cell-based, bovine", "details": "FIG. 12, FIG. 13", "experimental": "The following experiments were carried out to determine whether DPPI could generate a lytic product from Leu-Leu-OMe. In the experiment detailed in FIG. 12, ^51 Cr-labeled human erythrocytes (RBC) were incubated with varying concentrations of Leu-Leu-OMe alone or in the presence of purified bovine DPPI.\nIn the experiments detailed in FIG. 13, ^51 Cr-labeled RBC's were exposed to various dipeptide esters or amides in the presence or absence of purified DPPI. […] The first observation is probably related to the inability of this enzyme to catalyze transpeptidation of peptide esters containing D-stereoisomers of amino acids. The latter observations are likely to be related to the fact that polymers of Ser-Leu or Leu-Tyr are not hydrophobic and therefore unlikely to enter and disrupt cell membranes."}, "[3]": {"tested_on": "natural killer cells (NK)", "test": "NK function: lysis of K562 target cells (51Cr release) after preincubation of lymphocytes with compound", "details": "for NK toxicity / effect on NK function, in words: lymphocytes exposed 15 minutes at room temperature (FIG. 4, FIG. 5)"}, "[4]": {"tested_on": "splenic NK function (YAC-1 tumor targets)", "test": "Spleen cell NK function against YAC-1 after tail-vein injection", "assay_type": "in vivo, C3H/HeJ mice", "experimental": "(§1) Leu-Leu-OMe or Leu-Phe-OMe were suspended in PBS, pH 7.4. Then individual C3H/HeJ mice (25 gram size) were administered by tail-vein injection either 2.5×10^-5 moles (6.5 mg) of Leu-Leu-OMe, 2.5×10^-5 moles (7.1 mg) Leu-Phe-OMe, or an equal volume of the PBS diluent, this dose being about 1×10^-3 moles per kg. […] Subsequent to this quiescent period no difference in activity or appearance in the mice was noted. Two hours post-injection, the mice were sacrificed and their spleen cells were assayed for NK function in a standard 4 hour assay against YAC-1 tumor targets. In all mice, total cell recovery ranged […] spleen cells per animal. […] Thus, Leu-Leu-OMe or Leu-Phe-OMe caused a greater than 75% decrease in splenic lytic activity against YAC-1 tumor targets."}, "[5]": {"test": "Activity and appearance of mice post-injection", "assay_type": "in vivo, C3H/HeJ mice", "details": "15-30 minutes post-injection, about 1×10^-3 moles per kg tail-vein", "experimental": "as §1"}, "[6]": {"test": "Generation of dipeptide methyl esters from amino acid methyl esters by MP or PMN (TLC)", "assay_type": "in vitro ADME, human", "details": "equal concentrations of Leu-OMe, Val-OMe or Phe-OMe added", "experimental": "MP or PMN (prepared as in Example 1) at a concentration of 25×10^6 per ml were suspended in PBS and incubated with 25 mM Leu-OMe for 20 minutes at 22~C. Cell suspensions were then centrifuged at 1000 g for 10 minutes and the supernatants harvested and freeze-dried at -70~C., 100 millitorr atmospheric pressure. In some experiments, Leu-OMe-treated MP or PMN were sonicated to increase the yield of the reaction product. Samples were then extracted with methanol for application to thin layer chromatography (TLC) plates ([…]×20 cm^2, Analtech, Newark, Del.). Following development with chloroform/methanol/acetic acid (19 1:12.5 by volume), 1 cm bands were eluted with methanol, dried under nitrogen, and resuspended in 1 ml PBS. Mass spectra were obtained with a Finnegan Model 4021 automated EI/CI, GC/MS system coupled to an Incos data system. […]\nIn order to determine whether MP or PMN could generate the relevant dipeptide methyl esters from these amino acid methyl esters, TLC analysis of the supernatants of MP and PMN incubated with these compounds was carried out. […] However, when equal concentrations of Leu-OMe, Val-OMe, or Phe-OMe were added to MP or PMN, the concentrations of Val-Val-OMe generated were 50 to 80% of those found for Leu-Leu-OMe, while Phe-Phe-OMe was detected at only 10-30% of the levels of Leu-Leu-OMe. […]"}, "[7]": {"tested_on": "natural killer cells (NK)", "details": "previous experiments (Thiele et al. 1985); cited from earlier work"}, "[8]": {"details": "[3H]Leu-Leu-OMe 10 microM (Table 5)"}}, "note": "Peptide text beside a SMILES is read from it."}
{"smiles": "COC(=O)[C@@H](CC(C)C)NC(=O)[C@H](N)CC(C)C", "note": "[D-Leu-D-Leu-OMe]", "values": [{"measurement": "competitive inhibition of [3H]Leu-Leu-OMe uptake, in words", "setting": "[1]", "value": "do not competitively inhibit PBL uptake of L-Leu-L-Leu-OMe"}, {"measurement": "inhibition at 250 µM", "setting": "[1]; [8]", "value": 7, "unit": "%"}, {"measurement": "RBC lysis in the presence of purified DPPI, in words", "setting": "[2]", "value": "unable to produce a membrane active metabolite"}, {"measurement": "effect on Leu-Leu-OMe mediated NK toxicity", "setting": "[3]; added with Leu-Leu-OMe", "value": "had no effect on Leu-Leu-OMe mediated NK toxicity"}, {"measurement": "NK toxicity / effect on NK function, in words", "setting": "[3]", "value": "had no inhibitory effect"}]}
{"smiles": "CC(C)C[C@H](NC(=O)[C@@H](N)CC(C)C)C(=O)O", "note": "[Leu-Leu, L-leucyl L-leucine, reference compound]", "values": [{"measurement": "competitive inhibition of [3H]Leu-Leu-OMe uptake, in words", "setting": "[1]", "value": "competitively inhibited"}, {"measurement": "inhibition at 250 µM", "setting": "[1]; [8]", "value": 44, "unit": "%"}, {"measurement": "RBC lysis in the presence of purified DPPI, in words", "setting": "[2]", "value": "not polymerized by DPPI to form a product capable of lysing RBC's"}, {"measurement": "NK toxicity / effect on NK function, in words", "setting": "[3]", "value": "had no inhibitory effect"}]}
{"smiles": "COC(=O)[C@@H](N)CC(C)C", "note": "[Leu-OMe, L-leucine methyl ester, reference compound]", "values": [{"measurement": "competitive inhibition of [3H]Leu-Leu-OMe uptake, in words", "setting": "[1]", "value": "do not competitively inhibit PBL uptake of L-Leu-L-Leu-OMe"}, {"measurement": "inhibition at 250 µM", "setting": "[1]; [8]", "value": -10, "unit": "%"}, {"measurement": "RBC lysis in the presence of purified DPPI, in words", "setting": "[2]", "value": "not polymerized by DPPI to form a product capable of lysing RBC's"}, {"measurement": "NK activity", "setting": "[3]; PBM, 5 mM (FIG. 1)", "value": "ablated all NK activity"}, {"measurement": "NK toxicity / effect on NK function, in words", "setting": "[3]", "value": "had no irreversible effect on NK function"}]}
{"smiles": "COC(=O)[C@H](Cc1ccccc1)NC(=O)[C@@H](N)CC(C)C", "note": "[Leu-Phe-OMe] (H-Leu-Phe-OMe)", "values": [{"measurement": "inhibition at 250 µM", "setting": "[1]; [3H]Leu-Leu-OMe 10 microM (Table 6)", "value": 72, "unit": "%"}, {"measurement": "Percent lysis of target cells", "setting": "[4]; E:T 25:1, 2.5×10^-5 moles per mouse tail-vein, 2 hours post-injection, Control 8.29", "value": 3.89, "unit": "%"}, {"measurement": "Percent lysis of target cells", "setting": "[4]; E:T 50:1, same dosing, Control 12.88", "value": 4.68, "unit": "%"}, {"measurement": "Percent lysis of target cells", "setting": "[4]; E:T 100:1, same dosing, Control 20.60", "value": 6.91, "unit": "%"}, {"measurement": "Percent lysis of target cells", "setting": "[4]; E:T 200:1, same dosing, Control 29.29", "value": 11.91, "unit": "%"}, {"measurement": "decrease in splenic lytic activity against YAC-1 tumor targets", "setting": "[4]; about 1×10^-3 moles per kg tail-vein", "value": "greater than 75%"}, {"measurement": "NK Toxicity (LD50)", "setting": "[3]; concentration which results in 50% loss of human NK function, PBL 15 minutes at 22° C.", "value": 29, "unit": "micro-M"}, {"measurement": "NK toxicity / effect on NK function, in words", "setting": "[3]", "value": "produced concentration-dependent ablation of NK function at concentrations comparable to those at which Leu-Leu-OMe was active"}, {"measurement": "activity and appearance post-injection", "setting": "[5]", "value": "exhibited decreased activity and an apparent increase in sleep"}]}
{"smiles": "COC(=O)[C@H](Cc1ccccc1)NC(=O)[C@@H](N)Cc1ccccc1", "note": "[Phe-Phe-OMe] (H-Phe-Phe-OMe)", "values": [{"measurement": "concentration generated by MP or PMN, relative to Leu-Leu-OMe", "setting": "[6]", "value": "10-30%"}, {"measurement": "NK toxicity / effect on NK function, in words", "setting": "[3]", "value": "less NK toxic than either Leu-Phe-OMe or Phe-Leu-OMe"}]}
{"smiles": "COC(=O)[C@@H](N)C(C)C", "note": "[Val-OMe]", "values": [{"measurement": "deletion of NK function from human PBM", "setting": "[7]", "value": "did not delete NK function from human PBM"}]}
